{"source": "patent US20180200257A1", "about": "“METHODS FOR THE TREATMENT OF INFLAMMATORY DISORDERS” (Galapagos NV, priority 2015, published 2018)", "tested_on": "subjects with moderately to severely active RA who have an inadequate response to methotrexate (MTX)", "test": "Study 1 (add-on to MTX) - Alanine Aminotransferase (ALT) levels", "assay_type": "in vivo, human", "settings": "24 weeks results", "method": "Double-blind, placebo-controlled add on study in subjects with moderately to severely active RA who have an inadequate response to methotrexate (MTX) (oral or parenteral).\n595 subjects randomized to one of 6 dose regimens of Compound 1 (dosed as [Compound 1:HCl:3H2O]) (3 dose levels administered either once or twice daily) or placebo on top of each subject's stable dose of MTX.\nCompound 1 (dosed as [Compound 1:HCl:3H2O]) is dosed for twelve weeks once daily (q.d.) (50 mg, 100 mg or 200 mg) or twice daily (b.i.d.) (25 mg, 50 mg or 100 mg); or placebo.\nAt Week 12, the subjects on placebo who have not achieved 20% improvement in swollen joint count (SJC66) and tender joint count (TJC68) are re-randomized automatically to receive Compound 1 (dosed as a [Compound 1:HCl:3H2O]) either at 100 mg q.d. or 50 mg b.i.d. doses in a blinded fashion; subjects on 50 mg q.d. who have not achieved 20% improvement in SJC66 and TJC68 will be assigned to 100 mg q.d. and subjects on 25 mg b.i.d. that have not achieved a 20% improvement in SJC66 and TJC68 will be assigned to 50 mg b.i.d. Subjects who switch treatment at week 12 are handled as if they discontinued at week 12 for the purpose of statistical analysis, whereas subjects in the other groups will maintain their randomized treatment until Week 24.\nALT levels determination is available at Quest Diagnostics, Clinical Trials, Quest House, 125-135 Staines Road, Hounslow, Middlesex, TW3 3JB, United Kingdom under Catalogue n#84460.\nALT catalyzes the exchange of the amino group of alanine with the oxogroup of 2-ketoglutarate to form pyruvate and glutamate. In the presence of lactic dehydrogenase, pyruvate reacts with NADH to form NAD+, measured spectrophotometrically. Guidelines for the ALT value have been issued by the association for Clinical Biochemistry and Laboratory Medicine, 130-132 Tooley Street LONDON SE1 2TU, united Kingdom, wherein the ALT value should be below 34 U/l in Female and below 52 U/L in male.", "key": {"[1]": {"settings": "from 25 mg b.i.d. to 50 mg b.i.d. at 12 weeks, week 1"}, "[2]": {"settings": "from 25 mg b.i.d. to 50 mg b.i.d. at 12 weeks, week 2"}, "[3]": {"settings": "from 25 mg b.i.d. to 50 mg b.i.d. at 12 weeks, week 4"}, "[4]": {"settings": "from 25 mg b.i.d. to 50 mg b.i.d. at 12 weeks, week 8"}, "[5]": {"settings": "from 25 mg b.i.d. to 50 mg b.i.d. at 12 weeks, week 12"}, "[6]": {"settings": "from 25 mg b.i.d. to 50 mg b.i.d. at 12 weeks, week 16"}, "[7]": {"settings": "from 25 mg b.i.d. to 50 mg b.i.d. at 12 weeks, week 20"}, "[8]": {"settings": "from 25 mg b.i.d. to 50 mg b.i.d. at 12 weeks, week 24"}, "[9]": {"settings": "from 50 mg q.d. to 100 mg q.d. at 12 weeks, week 1"}, "[10]": {"settings": "from 50 mg q.d. to 100 mg q.d. at 12 weeks, week 2"}, "[11]": {"settings": "from 50 mg q.d. to 100 mg q.d. at 12 weeks, week 4"}, "[12]": {"settings": "from 50 mg q.d. to 100 mg q.d. at 12 weeks, week 8"}, "[13]": {"settings": "from 50 mg q.d. to 100 mg q.d. at 12 weeks, week 12"}, "[14]": {"settings": "from 50 mg q.d. to 100 mg q.d. at 12 weeks, week 16"}, "[15]": {"settings": "from 50 mg q.d. to 100 mg q.d. at 12 weeks, week 20"}, "[16]": {"settings": "from 50 mg q.d. to 100 mg q.d. at 12 weeks, week 24"}, "[17]": {"settings": "placebo switched to 50 mg b.i.d. at week 12, week 16"}, "[18]": {"settings": "placebo switched to 50 mg b.i.d. at week 12, week 20"}, "[19]": {"settings": "placebo switched to 50 mg b.i.d. at week 12, week 24"}, "[20]": {"settings": "placebo switched to 100 mg q.d. at week 12, week 16"}, "[21]": {"settings": "placebo switched to 100 mg q.d. at week 12, week 20"}, "[22]": {"settings": "placebo switched to 100 mg q.d. at week 12, week 24"}}}
{"compound": "O=C(Nc1nc2cccc(-c3ccc(CN4CCS(=O)(=O)CC4)cc3)n2n1)C1CC1", "note": "[Compound 1, cyclopropanecarboxylic acid {5-[4-(1,1-dioxo-thiomorpholin-4-ylmethyl)-phenyl]-[1,2,4]triazolo[1,5-a]pyridin-2-yl}-amide]", "values": [{"measurement": "Study 1 - ALT Mean CFB", "setting": "continued 200 mg q.d., week 16", "result": 4.7, "unit": "IU/L"}, {"measurement": "Study 1 - ALT Mean percentage CFB", "setting": "continued 200 mg q.d., week 16", "result": 43.8, "unit": "%"}, {"measurement": "Study 1 - ALT Mean CFB", "setting": "continued 200 mg q.d., week 20", "result": 2.9, "unit": "IU/L"}, {"measurement": "Study 1 - ALT Mean percentage CFB", "setting": "continued 200 mg q.d., week 20", "result": 32.9, "unit": "%"}, {"measurement": "Study 1 - ALT Mean CFB", "setting": "continued 200 mg q.d., week 24", "result": 5.4, "unit": "IU/L"}, {"measurement": "Study 1 - ALT Mean percentage CFB", "setting": "continued 200 mg q.d., week 24", "result": 47.5, "unit": "%"}, {"measurement": "Study 1 - ALT Mean CFB", "setting": "[1]", "result": "−7.8", "unit": "IU/L"}, {"measurement": "Study 1 - ALT Mean percentage CFB", "setting": "[1]", "result": "−16.4", "unit": "%"}, {"measurement": "Study 1 - ALT Mean CFB", "setting": "[2]", "result": "−7.3", "unit": "IU/L"}, {"measurement": "Study 1 - ALT Mean percentage CFB", "setting": "[2]", "result": "−12.0", "unit": "%"}, {"measurement": "Study 1 - ALT Mean CFB", "setting": "[3]", "result": "−5.6", "unit": "IU/L"}, {"measurement": "Study 1 - ALT Mean percentage CFB", "setting": "[3]", "result": 0.0, "unit": "%"}, {"measurement": "Study 1 - ALT Mean CFB", "setting": "[4]", "result": "−8.3", "unit": "IU/L"}, {"measurement": "Study 1 - ALT Mean percentage CFB", "setting": "[4]", "result": "−16.4", "unit": "%"}, {"measurement": "Study 1 - ALT Mean CFB", "setting": "[5]", "result": "−6.4", "unit": "IU/L"}, {"measurement": "Study 1 - ALT Mean percentage CFB", "setting": "[5]", "result": "−5.8", "unit": "%"}, {"measurement": "Study 1 - ALT Mean CFB", "setting": "[6]", "result": "−7.9", "unit": "IU/L"}, {"measurement": "Study 1 - ALT Mean percentage CFB", "setting": "[6]", "result": "−9.7", "unit": "%"}, {"measurement": "Study 1 - ALT Mean CFB", "setting": "[7]", "result": "−5.4", "unit": "IU/L"}, {"measurement": "Study 1 - ALT Mean percentage CFB", "setting": "[7]", "result": 5.9, "unit": "%"}, {"measurement": "Study 1 - ALT Mean CFB", "setting": "[8]", "result": "−4.8", "unit": "IU/L"}, {"measurement": "Study 1 - ALT Mean percentage CFB", "setting": "[8]", "result": 5.7, "unit": "%"}, {"measurement": "Study 1 - ALT Mean CFB", "setting": "[9]", "result": 0.4, "unit": "IU/L"}, {"measurement": "Study 1 - ALT Mean percentage CFB", "setting": "[9]", "result": 0.9, "unit": "%"}, {"measurement": "Study 1 - ALT Mean CFB", "setting": "[10]", "result": "−1.4", "unit": "IU/L"}, {"measurement": "Study 1 - ALT Mean percentage CFB", "setting": "[10]", "result": "−6.5", "unit": "%"}, {"measurement": "Study 1 - ALT Mean CFB", "setting": "[11]", "result": "−0.3", "unit": "IU/L"}, {"measurement": "Study 1 - ALT Mean percentage CFB", "setting": "[11]", "result": 2.2, "unit": "%"}, {"measurement": "Study 1 - ALT Mean CFB", "setting": "[12]", "result": "−0.2", "unit": "IU/L"}, {"measurement": "Study 1 - ALT Mean percentage CFB", "setting": "[12]", "result": 3.6, "unit": "%"}, {"measurement": "Study 1 - ALT Mean CFB", "setting": "[13]", "result": "−0.1", "unit": "IU/L"}, {"measurement": "Study 1 - ALT Mean percentage CFB", "setting": "[13]", "result": 5.2, "unit": "%"}, {"measurement": "Study 1 - ALT Mean CFB", "setting": "[14]", "result": "−2.3", "unit": "IU/L"}, {"measurement": "Study 1 - ALT Mean percentage CFB", "setting": "[14]", "result": "−9.8", "unit": "%"}, {"measurement": "Study 1 - ALT Mean CFB", "setting": "[15]", "result": "−1.7", "unit": "IU/L"}, {"measurement": "Study 1 - ALT Mean percentage CFB", "setting": "[15]", "result": "−3.7", "unit": "%"}, {"measurement": "Study 1 - ALT Mean CFB", "setting": "[16]", "result": "−3.0", "unit": "IU/L"}, {"measurement": "Study 1 - ALT Mean percentage CFB", "setting": "[16]", "result": "−8.7", "unit": "%"}, {"measurement": "Study 1 - ALT Mean CFB", "setting": "[17]", "result": 0.5, "unit": "IU/L"}, {"measurement": "Study 1 - ALT Mean percentage CFB", "setting": "[17]", "result": 1.1, "unit": "%"}, {"measurement": "Study 1 - ALT Mean CFB", "setting": "[18]", "result": 0.7, "unit": "IU/L"}, {"measurement": "Study 1 - ALT Mean percentage CFB", "setting": "[18]", "result": 0.7, "unit": "%"}, {"measurement": "Study 1 - ALT Mean CFB", "setting": "[19]", "result": 1.0, "unit": "IU/L"}, {"measurement": "Study 1 - ALT Mean percentage CFB", "setting": "[19]", "result": 6.8, "unit": "%"}, {"measurement": "Study 1 - ALT Mean CFB", "setting": "[20]", "result": "−1.3", "unit": "IU/L"}, {"measurement": "Study 1 - ALT Mean percentage CFB", "setting": "[20]", "result": 0.4, "unit": "%"}, {"measurement": "Study 1 - ALT Mean CFB", "setting": "[21]", "result": 0.5, "unit": "IU/L"}, {"measurement": "Study 1 - ALT Mean percentage CFB", "setting": "[21]", "result": 5.9, "unit": "%"}, {"measurement": "Study 1 - ALT Mean CFB", "setting": "[22]", "result": "−0.1", "unit": "IU/L"}, {"measurement": "Study 1 - ALT Mean percentage CFB", "setting": "[22]", "result": 10.0, "unit": "%"}]}
